System: NCI-H1876 complex spheroid viability
Test: Anticancer human tumor NCI-H1876 cell line growth inhibition [LSD1];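 further: spheroids exposed to compounds for one week before readout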;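 on viability, T/C: 100% = DMSO vehicle-treated spheroids so lower means fewer viable cells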
Settings: for IC50: curve of first compound; for viability, T/C: stronger effect = lower value
How it was run: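 Drug combinations with the LSD1 inhibitor iadademstat tested on tumor cells co-cultured as spheroids with endothelial cells and mesenchymal stem cells. Concentrations descended in half-log increments from clinical Cmax or 10 microM.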

[1] = second compound 0.1 µM, first compound 0.0316 µM
[2] = second compound 0.1 µM, first compound 0.1 µM
[3] = second compound 0.1 µM, first compound 0.316 µM
[4] = second compound 0.1 µM, first compound 1 µM
[5] = second compound 0.1 µM, first compound 3.16 µM
[6] = second compound 0.1 µM, first compound 10 µM
[7] = second compound 0.316 µM, first compound 0.0316 µM
[8] = second compound 0.316 µM, first compound 0.1 µM
[9] = second compound 0.316 µM, first compound 0.316 µM
[10] = second compound 0.316 µM, first compound 1 µM
[11] = second compound 0.316 µM, first compound 3.16 µM
[12] = second compound 0.316 µM, first compound 10 µM
[13] = second compound 1 µM, first compound 0.0316 µM
[14] = second compound 1 µM, first compound 0.1 µM
[15] = second compound 1 µM, first compound 0.316 µM
[16] = second compound 1 µM, first compound 1 µM
[17] = second compound 1 µM, first compound 3.16 µM
[18] = second compound 1 µM, first compound 10 µM
[19] = second compound 3.16 µM, first compound 0.0316 µM
[20] = second compound 3.16 µM, first compound 0.1 µM
[21] = second compound 3.16 µM, first compound 0.316 µM
[22] = second compound 3.16 µM, first compound 1 µM
[23] = second compound 3.16 µM, first compound 3.16 µM
[24] = second compound 3.16 µM, first compound 10 µM
[25] = second compound 10 µM, first compound 0.0316 µM
[26] = second compound 10 µM, first compound 0.1 µM
[27] = second compound 10 µM, first compound 0.316 µM
[28] = second compound 10 µM, first compound 1 µM
[29] = second compound 10 µM, first compound 3.16 µM
[30] = second compound 10 µM, first compound 10 µM
[31] = second compound 0.1 µM, first compound 0.00316 µM
[32] = second compound 0.1 µM, first compound 0.01 µM
[33] = second compound 0.316 µM, first compound 0.00316 µM
[34] = second compound 0.316 µM, first compound 0.01 µM
[35] = second compound 1 µM, first compound 0.00316 µM
[36] = second compound 1 µM, first compound 0.01 µM
[37] = second compound 3.16 µM, first compound 0.00316 µM
[38] = second compound 3.16 µM, first compound 0.01 µM
[39] = second compound 10 µM, first compound 0.00316 µM
[40] = second compound 10 µM, first compound 0.01 µM

Row | SMILES | IC50 (second compound 0.1 µM) | IC50 (second compound 0.316 µM) | IC50 (second compound 1 µM) | IC50 (second compound 3.16 µM) | IC50 (second compound 10 µM) | viability, T/C [1] | viability, T/C [2] | viability, T/C [3] | viability, T/C [4] | viability, T/C [7] | viability, T/C [8] | viability, T/C [9] | viability, T/C [10] | viability, T/C [13] | viability, T/C [14] | viability, T/C [15] | viability, T/C [16] | viability, T/C [19] | viability, T/C [20] | viability, T/C [21] | further results
1 | CC(C)c1c(-c2ccccc2)nc2c(C#N)c[nH]n2c1=O + NC1CC1c1ccc(-c2cccc(O)c2)cc1 | 7370 nM | 7730 nM | 7780 nM | 6290 nM | 4800 nM | 97.2% | 96.2% | 97.3% | 93.2% | 99.3% | 102% | 102% | 111% | 102% | 101% | 101% | 106% | 101% | 98.2% | 96.6% | viability, T/C [5]: 87.2%; viability, T/C [6]: 36.5%; viability, T/C [11]: 91%; viability, T/C [12]: 38.2%; viability, T/C [17]: 98.5%; viability, T/C [18]: 36.5%; viability, T/C [22]: 96.5%; viability, T/C [23]: 87.3%; viability, T/C [24]: 24.8%; viability, T/C [25]: 84.7%; viability, T/C [26]: 85.7%; viability, T/C [27]: 91.2%; viability, T/C [28]: 88%; viability, T/C [29]: 73.2%; viability, T/C [30]: 9.44%
2 | CC1COCCN1c1cc(-c2ccnn2C)c2ccnc(-c3ccn[nH]3)c2n1 (stereo not given) + NC1CC1c1ccc(-c2cccc(O)c2)cc1 | 3.89 nM | 3.77 nM | 4.13 nM | < 3.16 nM | < 3.16 nM | 16.5% | 4.97% | 3.26% | 3.75% | 17.6% | 4.99% | 3.15% | 3.99% | 19.2% | 5.94% | 3.81% | 4.68% | 18.3% | 5.67% | 3.74% | viability, T/C [31]: 51.9%; viability, T/C [32]: 41.5%; viability, T/C [33]: 51.6%; viability, T/C [34]: 41.4%; viability, T/C [35]: 51.9%; viability, T/C [36]: 43.7%; viability, T/C [37]: 43%; viability, T/C [38]: 39.5%; viability, T/C [22]: 4.48%; viability, T/C [39]: 37.5%; viability, T/C [40]: 31.5%; viability, T/C [25]: 16.8%; viability, T/C [26]: 6.91%; viability, T/C [27]: 4.75%; viability, T/C [28]: 5.76%
3 | COc1ccc([C@@H](O)c2cc(-c3ncnc4cc(N5CCOCC5)ccc34)c(F)cc2Cl)nn1 + NC1CC1c1ccc(-c2cccc(O)c2)cc1 | 1870 nM | 1890 nM | 1730 nM | 1100 nM | 546 nM | 89.6% | 91.2% | 87.8% | 67.8% | 92.5% | 93.1% | 86.1% | 71% | 103% | 102% | 88.5% | 67.5% | 93.9% | 91.3% | 79.3% | viability, T/C [5]: 34.7%; viability, T/C [6]: 9.23%; viability, T/C [11]: 33.3%; viability, T/C [12]: 9.61%; viability, T/C [17]: 31.3%; viability, T/C [18]: 9%; viability, T/C [22]: 50%; viability, T/C [23]: 26%; viability, T/C [24]: 6.12%; viability, T/C [25]: 90.3%; viability, T/C [26]: 83.2%; viability, T/C [27]: 58.6%; viability, T/C [28]: 38%; viability, T/C [29]: 17.8%; viability, T/C [30]: 2.16%
4 | O=C(C=Cn1cnc(-c2cc(C(F)(F)F)cc(C(F)(F)F)c2)n1)NNc1cnccn1 + NC1CC1c1ccc(-c2cccc(O)c2)cc1 | 78 nM | 78.6 nM | 83 nM | 86 nM | 109 nM | 77.9% | 42.8% | 16.4% | 11.7% | 81.8% | 42% | 16.4% | 11.3% | 83.1% | 44.1% | 16.7% | 12.9% | 78.7% | 46.9% | 18.2% | viability, T/C [31]: 96.7%; viability, T/C [32]: 97.2%; viability, T/C [33]: 105%; viability, T/C [34]: 104%; viability, T/C [35]: 97.5%; viability, T/C [36]: 103%; viability, T/C [37]: 97.1%; viability, T/C [38]: 99.5%; viability, T/C [22]: 14.1%; viability, T/C [39]: 96%; viability, T/C [40]: 92.4%; viability, T/C [25]: 81.1%; viability, T/C [26]: 53.5%; viability, T/C [27]: 22.8%; viability, T/C [28]: 18.4%
5 | Nc1ncn(C2CC(O)C(CO)O2)c(=O)n1 (stereo not given) + NC1CCC(NC2CC2c2ccccc2)CC1 | > 1000 nM | > 1000 nM | > 1000 nM | > 1000 nM | > 1000 nM | 99.7% | 97.5% | 98.7% | 96.2% | 99.8% | 98.5% | 92.5% | 86.6% | 100% | 97.9% | 93.5% | 92.2% | 102% | 97.6% | 92.6% | viability, T/C [31]: 104%; viability, T/C [32]: 109%; viability, T/C [33]: 103%; viability, T/C [34]: 98.8%; viability, T/C [35]: 102%; viability, T/C [36]: 109%; viability, T/C [37]: 98.6%; viability, T/C [38]: 104%; viability, T/C [22]: 95.8%; viability, T/C [39]: 99.3%; viability, T/C [40]: 100%; viability, T/C [25]: 96.7%; viability, T/C [26]: 106%; viability, T/C [27]: 92.8%; viability, T/C [28]: 97.1%

Source: PubChem BioAssay AID1918957 (Molecular Pharmacology Branch, DTP, NCI, 2023)
